Experimental data from patent US8932597B2 (priority 2008, dated 2015).

Test system: anti-M2 human monoclonal antibody Z3G1
Assay type: binding

Row | Substance | Signal (peptides that bind to Z3G1) | also measured
1 | 1341 (MSLLCEVGMSLLCEV; epitope peptide) [compound 1341] | 2851 | –
2 | 1588 (SLLREVETPIRNEWGCRCNDSSD; epitope peptide) [compound 1588] | – | Signal (peptides that show specific binding to Z3G1): 2286
3 | 1560 (SLLCEVGCSCLCEV; epitope peptide) [compound 1560] | – | Signal (peptides that show specific binding to Z3G1): 2112
4 | 1462 (CETPIRNEWGLLTEVETPICTEVETPIRN; epitope peptide; MISC_FEATURE (1)..(1): C is an attachment site for a CLIP; MISC_FEATURE (10)..(10): G is an attachment site for a CLIP; MISC_FEATURE (11)..(11): L is an attachment site for a CLIP; MISC_FEATURE (29)..(29): N is an attachment site for a CLIP) [compound 1462] | 1710 | –
5 | 1554 (SLLCEVGSLLCEV; epitope peptide) [compound 1554] | – | Signal (peptides that show specific binding to Z3G1): 2399
6 | 1250 (MALLTEVETPIRNEWGCRCN; epitope peptide) [compound 1250] | 2604 | –
7 | 1257 (MKLLTEVETPIRNEWGCRCN; epitope peptide) [compound 1257] | 2629 | –
8 | 1444 (CEVETPIRNELLTEVETPICLTEVETPIR; epitope peptide; MISC_FEATURE (1)..(1): C is an attachment site for a CLIP; MISC_FEATURE (10)..(10): E is an attachment site for a CLIP; MISC_FEATURE (11)..(11): L is an attachment site for a CLIP; MISC_FEATURE (29)..(29): R is an attachment site for a CLIP) [compound 1444] | 2000 | –
9 | 1373 (SLLCEVETPIRNEWGC; epitope peptide) [compound 1373] | 2281 | –
10 | 1513 (CEVETPIRNELLTEVETPICETPIRNEWG; epitope peptide; MISC_FEATURE (1)..(1): C is an attachment site for a CLIP; MISC_FEATURE (10)..(10): E is an attachment site for a CLIP; MISC_FEATURE (11)..(11): L is an attachment site for a CLIP; MISC_FEATURE (29)..(29): G is an attachment site for a CLIP) [compound 1513] | – | Signal (peptides that show specific binding to Z3G1): 2466
11 | 1255 (MHLLTEVETPIRNEWGCRCN; epitope peptide) [compound 1255] | 2449 | –
12 | 439 (SLLTEVETPIRNE; epitope peptide) [compound 439] | 1819 | –
13 | 1303 (MSLLTEVHTPIRNEWGCRCN; epitope peptide) [compound 1303] | 2751 | –
14 | 1375 (SLLTEVETPIRNEWCC; epitope peptide) [compound 1375] | 1813 | –
15 | 1498 (CETPIRNEWGLLTEVETPICVETPIRNEW; epitope peptide; MISC_FEATURE (1)..(1): C is an attachment site for a CLIP; MISC_FEATURE (10)..(10): G is an attachment site for a CLIP; MISC_FEATURE (11)..(11): L is an attachment site for a CLIP; MISC_FEATURE (29)..(29): W is an attachment site for a CLIP) [compound 1498] | 1817 | –
16 | 1268 (MSMLTEVETPIRNEWGCRCN; epitope peptide) [compound 1268] | 1329 | –
17 | 1360 (CLLCEVETPIRNE; epitope peptide) [compound 1360] | 2314 | –
18 | 1289 (MSLLNEVETPIRNEWGCRCN; epitope peptide) [compound 1289] | 2824 | –
19 | 1312 (MSLLTEVEWPIRNEWGCRCN; epitope peptide) [compound 1312] | 2541 | –

Row | Substance | Signal (peptides that bind to Z3G1) | also measured
20 | 1481 (CVETPIRNEWLLTEVETPICEVETPIRNE; epitope peptide; MISC_FEATURE (1)..(1): C is an attachment site for a CLIP; MISC_FEATURE (10)..(10): W is an attachment site for a CLIP; MISC_FEATURE (11)..(11): L is an attachment site for a CLIP; MISC_FEATURE (29)..(29): E is an attachment site for a CLIP) [compound 1481] | 1592 | –
21 | 1309 (MSLLTEVRTPIRNEWGCRCN; epitope peptide) [compound 1309] | 2668 | –
22 | 1288 (MSLLMEVETPIRNEWGCRCN; epitope peptide) [compound 1288] | 2847 | –
23 | 1310 (MSLLTEVWTPIRNEWGCRCN; epitope peptide) [compound 1310] | 2546 | –
24 | 1314 (CMSLCTEVETPIRNE; epitope peptide) [compound 1314] | 1705 | –
25 | 1338 (MSLLCEVGMSLCTEV; epitope peptide) [compound 1338] | 2595 | –
26 | 1308 (MSLLTEVPTPIRNEWGCRCN; epitope peptide) [compound 1308] | 2380 | –
27 | 1252 (MELLTEVETPIRNEWGCRCN; epitope peptide) [compound 1252] | 2679 | –
28 | 1578 (SLLAEVETPIRNEWGCRCNDSSD; epitope peptide) [compound 1578] | – | Signal (peptides that show specific binding to Z3G1): 2356
29 | 1251 (MDLLTEVETPIRNEWGCRCN; epitope peptide) [compound 1251] | 2726 | –
30 | 1320 (MCLLTEVETPCRNE; epitope peptide) [compound 1320] | 2404 | –
31 | 1305 (MSLLTEVKTPIRNEWGCRCN; epitope peptide) [compound 1305] | 2708 | –
32 | 1346 (MCLLTEVGMSLLTCV; epitope peptide) [compound 1346] | 1098 | –
33 | 1571 (NLLTEVETPIRNEWGCRCNDSSD; epitope peptide) [compound 1571] | – | Signal (peptides that show specific binding to Z3G1): 2135
34 | 1349 (MSLLCEVGCSCLCEV; epitope peptide) [compound 1349] | 2586 | –
35 | 1329 (MSLLCEVETCIRNE; epitope peptide) [compound 1329] | 2589 | –
36 | 1591 (SLLYEVETPIRNEWGCRCNDSSD; epitope peptide) [compound 1591] | – | Signal (peptides that show specific binding to Z3G1): 2181
37 | 1347 (MSLLCEVGMSLLTCV; epitope peptide) [compound 1347] | 2784 | –
38 | 1461 (CVETPIRNEWLLTEVETPICTEVETPIRN; epitope peptide; MISC_FEATURE (1)..(1): C is an attachment site for a CLIP; MISC_FEATURE (10)..(10): W is an attachment site for a CLIP; MISC_FEATURE (11)..(11): L is an attachment site for a CLIP; MISC_FEATURE (29)..(29): N is an attachment site for a CLIP) [compound 1461] | 1835 | –

Row | Substance | Signal (peptides that bind to Z3G1) | also measured
39 | 1262 (MQLLTEVETPIRNEWGCRCN; epitope peptide) [compound 1262] | 2526 | –
40 | 1334 (MSLLCEVGMCLLTEV; epitope peptide) [compound 1334] | 2676 | –
41 | 1321 (MCLLTEVETCIRNE; epitope peptide) [compound 1321] | 1948 | –
42 | 1344 (MCLCTCVGMSLLCEV; epitope peptide) [compound 1344] | 2431 | –
43 | CSLLTEVGSLLTEV (epitope peptide) [SEQ ID NO: 283] | – | Binding to Z3G1 (in words): recognized
44 | 1261 (MPLLTEVETPIRNEWGCRCN; epitope peptide) [compound 1261] | 2521 | –
45 | 1514 (CVETPIRNEWLLTEVETPICETPIRNEWG; epitope peptide; MISC_FEATURE (1)..(1): C is an attachment site for a CLIP; MISC_FEATURE (10)..(10): W is an attachment site for a CLIP; MISC_FEATURE (11)..(11): L is an attachment site for a CLIP; MISC_FEATURE (29)..(29): G is an attachment site for a CLIP) [compound 1514] | – | Signal (peptides that show specific binding to Z3G1): 2575
46 | 1381 (CLLTEVETPCRNEWG; epitope peptide) [compound 1381] | 2074 | –
47 | 1263 (MRLLTEVETPIRNEWGCRCN; epitope peptide) [compound 1263] | 2519 | –
48 | 1330 (MSLLCEVECPIRNE; epitope peptide) [compound 1330] | 2606 | –
49 | 1574 (RLLTEVETPIRNEWGCRCNDSSD; epitope peptide) [compound 1574] | – | Signal (peptides that show specific binding to Z3G1): 1338
50 | 1350 (MSLLCEVGMCLCTCV; epitope peptide) [compound 1350] | 2664 | –
51 | 1260 (MNLLTEVETPIRNEWGCRCN; epitope peptide) [compound 1260] | 2733 | –
52 | 1496 (CEVETPIRNELLTEVETPICVETPIRNEW; epitope peptide; MISC_FEATURE (1)..(1): C is an attachment site for a CLIP; MISC_FEATURE (10)..(10): E is an attachment site for a CLIP; MISC_FEATURE (11)..(11): L is an attachment site for a CLIP; MISC_FEATURE (29)..(29): W is an attachment site for a CLIP) [compound 1496] | 1625 | –
53 | 1269 (MSVLTEVETPIRNEWGCRCN; epitope peptide) [compound 1269] | 2111 | –
54 | 1369 (SLLTEVETPCRCE; epitope peptide) [compound 1369] | 1546 | –
55 | 1388 (SLLCEVETPIRNECG; epitope peptide) [compound 1388] | 2107 | –
56 | 1362 (SLLCEVETPIRCE; epitope peptide) [compound 1362] | 2307 | –
